Measurements as given in EP3130594B1, “PHOSPHONATES OF ACETYLENIC BETULIN DERIVATIVES WITH ANTICANCER ACTIVITY, METHOD FOR THEIR PRODUCTION AND THEIR APPLICATION” (Slaski Uniwersytet Medyczny w Katowicach, priority 2015, dated 2017).
≈ marks a conversion by molar mass, not a printed value.

What was measured:
Assay in all cases: Cytotoxic activity in vitro, WST1 test
breast cancer T47D = type: cell-based, human; settings: T47D cells, Neg = no activity in the applied concentration range; for IC50: Homo sapiens, read-out: Cytotoxic activity in vitro as IC50
Protocol: (§1) The evaluation of cytotoxic activity of the compounds described with Formula 2 was carried out against human cancer cells [brain glioma SNB-19, breast cancer T47D, melanoma C32] using WST1 tests (Table 1).

melanoma C32 = type: cell-based; settings: Homo sapiens, C32 cells, read-out: Cytotoxic activity in vitro as IC50
Protocol: as §1

brain glioma SNB-19 = type: cell-based; settings: Homo sapiens, SNB-19 cells, read-out: Cytotoxic activity in vitro as IC50
Protocol: as §1

CCOP(=O)(/C=C(\C)[C@@H]1CC[C@]2(COC(=O)C#CC3CC3)CC[C@]3(C)[C@H](CC[C@@H]4[C@@]5(C)CC[C@H](OC(=O)C#CC6CC6)C(C)(C)[C@@H]5CC[C@]43C)[C@@H]12)OCC [3,28-Di(cyclopropylpropynoyl)-29-diethoxyphosphorylbetulin] showed an IC50 (breast cancer T47D) of 79.5 ± 1.9 µg/mL (≈ 104 µM), an IC50 (melanoma C32) of 9.4 ± 0.2 µg/mL (≈ 12.3 µM) and an IC50 (brain glioma SNB-19) of 40.4 ± 6.8 µg/mL (≈ 52.9 µM).

In the case of CCOP(=O)(/C=C(\C)[C@@H]1CC[C@]2(COC(=O)C#CC3CC3)CC[C@]3(C)[C@H](CC[C@@H]4[C@@]5(C)CC[C@H](O)C(C)(C)[C@@H]5CC[C@]43C)[C@@H]12)OCC [28-cyclopropylpropynoyl-29-diethoxyphosphorylbetulin], the IC50 (breast cancer T47D) is reported as 8.2 ± 0.6 µg/mL (≈ 12.2 µM), the IC50 (melanoma C32) is reported as 4.7 ± 0.7 µg/mL (≈ 7.01 µM) and the IC50 (brain glioma SNB-19) is reported as 2.2 ± 0.8 µg/mL (≈ 3.28 µM).

Molecule C#CC(=O)OC[C@]12CC[C@@H](/C(C)=C/P(=O)(OCC)OCC)[C@@H]1[C@H]1CC[C@@H]3[C@@]4(C)CC[C@H](O)C(C)(C)[C@@H]4CC[C@@]3(C)[C@]1(C)CC2 [R = R1 = Et, R2 = HO, R3 =CH2C(O)C≡CH, 29-Diethoxyphosphoryl-28-propynoylbetulin] has an IC50 (breast cancer T47D) of 0.4 ± 0.1 µg/mL (≈ 0.634 µM) and an IC50 (brain glioma SNB-19) of 0.3 ± 0.1 µg/mL (≈ 0.476 µM).

In the case of C=C(C)[C@@H]1CC[C@]2(CO)CC[C@]3(C)[C@H](CC[C@@H]4[C@@]5(C)CC[C@H](O)C(C)(C)[C@@H]5CC[C@]43C)[C@@H]12 [Betulin, lup-20(29)-ene-3β,28-diol], the IC50 (breast cancer T47D) is reported as 77.9 ± 4 µg/mL (≈ 176 µM) and the IC50 (brain glioma SNB-19) is reported as 23.5 ± 2 µg/mL (≈ 53.1 µM).

Molecule C=C(CP(=O)(OCC)OCC)[C@@H]1CC[C@]2(COC(C)=O)CC[C@]3(C)[C@H](CC[C@@H]4[C@@]5(C)CC[C@H](OC(C)=O)C(C)(C)[C@@H]5CC[C@]43C)[C@@H]12 [R = R1 = Et, R2 = AcO, R3 = CH2OAc, 3, 28 - Diacetyl - 30 - diethoxyphosphorylbetulin] has an IC50 (breast cancer T47D) of 58 ± 3.4 µg/mL (≈ 87.5 µM) and an IC50 (brain glioma SNB-19) of 51.9 ± 0.8 µg/mL (≈ 78.3 µM).

C#CCOC(=O)OC[C@]12CC[C@@H](/C(C)=C/P(=O)(OCC)OCC)[C@@H]1[C@H]1CC[C@@H]3[C@@]4(C)CC[C@H](OC(=O)OCC#C)C(C)(C)[C@@H]4CC[C@@]3(C)[C@]1(C)CC2 [29-diethoxyphosphoryl-3,28-di(propargyloxycarbonyl)betulin] was tested, and the “Cytotoxic activity in vitro as IC50” value (breast cancer T47D) was “Neg”, the IC50 (melanoma C32) was 51.7 ± 4.8 µg/mL (≈ 69.6 µM) and the IC50 (brain glioma SNB-19) was 0.5 ± 0.1 µg/mL (≈ 0.673 µM).

For CCOP(=O)(/C=C(\C)[C@@H]1CC[C@]2(CO)CC[C@]3(C)[C@H](CC[C@@H]4[C@@]5(C)CC[C@H](O)C(C)(C)[C@@H]5CC[C@]43C)[C@@H]12)OCC [trans R = R1 =Et, R2= OH, R3 = CH2OH, E-29-Diethoxyphosphorylbetulin], the IC50 (breast cancer T47D) was 6.2 ± 0.5 µg/mL (≈ 10.7 µM) and the IC50 (brain glioma SNB-19) was 5.9 ± 0.4 µg/mL (≈ 10.2 µM).

C#CC(=O)OC[C@]12CC[C@@H](/C(C)=C/P(=O)(OCC)OCC)[C@@H]1[C@H]1CC[C@@H]3[C@@]4(C)CC[C@H](OC(=O)C#C)C(C)(C)[C@@H]4CC[C@@]3(C)[C@]1(C)CC2 [R=R1=Et, R2=HC≡CC(O)O, R3 = CH2C(O)C≡CH, 29-Diethoxyphosphoryl-3,28-dipropynoylbetulin] gave an IC50 (breast cancer T47D) of 2.8 ± 0.6 µg/mL (≈ 4.1 µM) and an IC50 (brain glioma SNB-19) of 0.6 ± 0.1 µg/mL (≈ 0.879 µM).

Molecule C#CCOC(=O)OC[C@]12CC[C@@H](/C(C)=C/P(=O)(OCC)OCC)[C@@H]1[C@H]1CC[C@@H]3[C@@]4(C)CC[C@H](O)C(C)(C)[C@@H]4CC[C@@]3(C)[C@]1(C)CC2 [29-Diethoxyphosphoryl-28-propargyloxycarbonylbetulin] has an IC50 (breast cancer T47D) of 49.4 ± 6.1 µg/mL (≈ 74.7 µM), an IC50 (melanoma C32) of 5.9 ± 0.3 µg/mL (≈ 8.93 µM) and an IC50 (brain glioma SNB-19) of 24.5 ± 12.6 µg/mL (≈ 37.1 µM).

In the case of CCOP(=O)(/C=C(/C)[C@@H]1CC[C@]2(CO)CC[C@]3(C)[C@H](CC[C@@H]4[C@@]5(C)CC[C@H](O)C(C)(C)[C@@H]5CC[C@]43C)[C@@H]12)OCC [cis R = R1 = Et, R2 =OH, R3 = CH2OH, Z - 29 - Diethoxyphosphorylbetulin], the IC50 (breast cancer T47D) is reported as 0.9 ± 0.1 µg/mL (≈ 1.55 µM) and the IC50 (brain glioma SNB-19) is reported as 4.8 ± 0.1 µg/mL (≈ 8.29 µM).

Work on CC#CC(=O)OC[C@]12CC[C@@H](/C(C)=C/P(=O)(OCC)OCC)[C@@H]1[C@H]1CC[C@@H]3[C@@]4(C)CC[C@H](OC(=O)C#CC)C(C)(C)[C@@H]4CC[C@@]3(C)[C@]1(C)CC2 [3,28-Di(2-butynoyl)-29-diethoxyphosphorylbetulin] yielded an IC50 (breast cancer T47D) of 13.9 ± 3.4 µg/mL (≈ 19.6 µM), an IC50 (melanoma C32) of 4.9 ± 0.3 µg/mL (≈ 6.89 µM) and an IC50 (brain glioma SNB-19) of 7.6 ± 1 µg/mL (≈ 10.7 µM).

CC#CC(=O)OC[C@]12CC[C@@H](/C(C)=C/P(=O)(OCC)OCC)[C@@H]1[C@H]1CC[C@@H]3[C@@]4(C)CC[C@H](O)C(C)(C)[C@@H]4CC[C@@]3(C)[C@]1(C)CC2 [R = R1 =Et, R2 =HO, R3 =CH2OC(O)C ≡ CCH3, 28-(2-butynoyl)-29-diethoxyphosphorylbetulin] gave an IC50 (breast cancer T47D) of 9.6 ± 0.6 µg/mL (≈ 14.9 µM), an IC50 (melanoma C32) of 4.9 ± 0.1 µg/mL (≈ 7.6 µM) and an IC50 (brain glioma SNB-19) of 7.5 ± 0.3 µg/mL (≈ 11.6 µM).
